Patent US12268674B2, “Mi-2β inhibitor as an immunotherapy agent” (BioVentures, LLC, priority 2021, dated 2025)

How the values were obtained:
SLC25A24 = target: T1, SLC25A24 (Homo sapiens, UniProt Q6NUK1); experiment: ATPase profile (ATP acyl phosphate probe); assay type: binding; conditions: SLC25A24, SEQ ID NO: 192, ATP BS
T1 construct: to get the native cell lysate; endogenous in cells; host or cells: A375 cell lysate

B16F10 cells = experiment: Co-culture assay of B16F10 cells with activated Pmel-1 T cells; assay type: cell-based, mouse; conditions: 25 μM; IFN-γ pretreated; activated Pmel-1 T cells 1:1, three days
Method: Pmel-1 TCR transgenic mice were purchased from Jackson Laboratory (stock #005023). The CD8 T cells were isolated from spleen and lymph nodes from Pmel-1 transgenic mice using the CD8a^+ T Cell Isolation Kit, mouse (Miltenyi Biotec, Order no: 130-104-075) according to the manufacturer's protocol. Freshly isolated CD8 T cells were stimulated with anti-CD3/CD28 beads (Thermo Fisher Scientific #11452D) for 3 days, and then the recombinant mouse IL-2 (Biolegend, #575406) was added at 20 ng/ml. After 6 days activation, T cells were used for co-culture with B16F10 cells.
B16F10 cells with shMi-2β or shScrambles were transfected with GFP expression vector pcDNA3-EGFP (Plasmid #13031), and the stable cell line was selection with 800 μg/mL G418. For in vitro validation, Mi-2β-deficient B16F10 cells (GFP positive) were mixed with control B16F10 cells (GFP negative) at a 1:1 ratio. The cells were treated with 10 ng/ml of IFN-γ for 24 hours, and then co-cultured with activated Pmel-1 T cells. After three days, the depletion of Mi-2β knockdown B16F10 cells was determined by FACS, comparing the percentage of knockdown cells (GFP positive) to control B16F10 cells (GFP negative).

APRT = target: T2, APRT (Homo sapiens, UniProt P07741); experiment: ATPase profile (ATP acyl phosphate probe); assay type: binding; conditions: SEQ ID NO: 40, ATP BS
T2 construct: to get the native cell lysate; host or cells: A375 cell lysate
T2 sequence (P07741 whole entry): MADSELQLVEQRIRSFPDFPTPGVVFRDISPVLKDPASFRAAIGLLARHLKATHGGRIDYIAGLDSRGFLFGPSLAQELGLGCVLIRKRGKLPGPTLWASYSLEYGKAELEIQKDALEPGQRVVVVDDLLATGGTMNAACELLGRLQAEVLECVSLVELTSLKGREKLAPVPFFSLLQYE

GATB = target: T3, GATB (Homo sapiens, UniProt O75879); experiment: ATPase profile (ATP acyl phosphate probe); assay type: binding
T3 construct: endogenous in cells; host or cells: A375 cell lysate
T3 sequence (O75879 31-557): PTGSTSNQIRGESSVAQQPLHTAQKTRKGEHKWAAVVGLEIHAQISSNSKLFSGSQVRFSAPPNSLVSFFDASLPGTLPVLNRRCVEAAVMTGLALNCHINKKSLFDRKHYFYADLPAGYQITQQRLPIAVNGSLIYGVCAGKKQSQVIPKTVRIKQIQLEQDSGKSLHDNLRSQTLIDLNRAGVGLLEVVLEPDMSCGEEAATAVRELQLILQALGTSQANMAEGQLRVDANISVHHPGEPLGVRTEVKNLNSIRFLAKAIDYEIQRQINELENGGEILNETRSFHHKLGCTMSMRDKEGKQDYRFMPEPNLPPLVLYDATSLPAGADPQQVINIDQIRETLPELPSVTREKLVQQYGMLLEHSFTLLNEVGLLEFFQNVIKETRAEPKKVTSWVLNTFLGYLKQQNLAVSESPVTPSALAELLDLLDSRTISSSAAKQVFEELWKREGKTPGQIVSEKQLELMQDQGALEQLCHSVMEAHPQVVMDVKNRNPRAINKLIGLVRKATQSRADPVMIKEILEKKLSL
T3 sequence (Q9H0R6 whole entry partner): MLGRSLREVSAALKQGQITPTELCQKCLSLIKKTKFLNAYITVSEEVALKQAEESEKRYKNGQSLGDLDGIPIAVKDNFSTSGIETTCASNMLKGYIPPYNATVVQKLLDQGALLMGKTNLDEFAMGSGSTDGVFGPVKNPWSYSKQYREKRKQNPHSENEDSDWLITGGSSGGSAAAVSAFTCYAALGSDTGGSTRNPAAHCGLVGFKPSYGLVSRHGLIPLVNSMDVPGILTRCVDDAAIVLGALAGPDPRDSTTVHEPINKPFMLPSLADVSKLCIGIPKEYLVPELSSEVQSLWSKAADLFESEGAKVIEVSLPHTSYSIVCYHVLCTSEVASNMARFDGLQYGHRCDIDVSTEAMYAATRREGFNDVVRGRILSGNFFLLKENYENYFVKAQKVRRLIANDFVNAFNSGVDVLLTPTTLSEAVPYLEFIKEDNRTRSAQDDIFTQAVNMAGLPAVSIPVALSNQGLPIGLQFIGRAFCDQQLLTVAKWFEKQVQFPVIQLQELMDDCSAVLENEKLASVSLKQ
T3 sequence (O43716 58-136 partner): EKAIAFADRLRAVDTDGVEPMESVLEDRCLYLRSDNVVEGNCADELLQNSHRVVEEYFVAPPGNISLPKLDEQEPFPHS

HSP90AB1 = target: T4, HSP90AB1 (Homo sapiens, UniProt P08238); experiment: ATPase profile (ATP acyl phosphate probe); assay type: binding; conditions: HSP90AB1, SEQ ID NO: 97, ATP BS
T4 construct: to get the native cell lysate; endogenous in cells; host or cells: A375

CLPB = target: T5, CLPB (Homo sapiens, UniProt Q9H078); experiment: ATPase profile (ATP acyl phosphate probe); assay type: binding; conditions: SEQ ID NO: 58, ATP BS
T5 construct: endogenous in cells; host or cells: A375 cell lysate

UBA6 = target: T6, UBA6 (Homo sapiens, UniProt A0AVT1); experiment: ATPase profile (ATP acyl phosphate probe); assay type: binding; conditions: UBA6, SEQ ID NO: 222, ATP BS
T6 construct: to get the native cell lysate; endogenous in cells; host or cells: A375 cell lysate

NME1, NME2 = experiment: ATPase profile (ATP acyl phosphate probe); assay type: binding; conditions: NME1, NME2, SEQ ID NO: 133, ATP BS
HSPA1A = target: T7, HSPA1A (Homo sapiens, UniProt P0DMV8); experiment: ATPase profile (ATP acyl phosphate probe); assay type: binding
T7 construct: to get the native cell lysate; endogenous in cells; host or cells: A375
T7 sequence (P0DMV8 whole entry): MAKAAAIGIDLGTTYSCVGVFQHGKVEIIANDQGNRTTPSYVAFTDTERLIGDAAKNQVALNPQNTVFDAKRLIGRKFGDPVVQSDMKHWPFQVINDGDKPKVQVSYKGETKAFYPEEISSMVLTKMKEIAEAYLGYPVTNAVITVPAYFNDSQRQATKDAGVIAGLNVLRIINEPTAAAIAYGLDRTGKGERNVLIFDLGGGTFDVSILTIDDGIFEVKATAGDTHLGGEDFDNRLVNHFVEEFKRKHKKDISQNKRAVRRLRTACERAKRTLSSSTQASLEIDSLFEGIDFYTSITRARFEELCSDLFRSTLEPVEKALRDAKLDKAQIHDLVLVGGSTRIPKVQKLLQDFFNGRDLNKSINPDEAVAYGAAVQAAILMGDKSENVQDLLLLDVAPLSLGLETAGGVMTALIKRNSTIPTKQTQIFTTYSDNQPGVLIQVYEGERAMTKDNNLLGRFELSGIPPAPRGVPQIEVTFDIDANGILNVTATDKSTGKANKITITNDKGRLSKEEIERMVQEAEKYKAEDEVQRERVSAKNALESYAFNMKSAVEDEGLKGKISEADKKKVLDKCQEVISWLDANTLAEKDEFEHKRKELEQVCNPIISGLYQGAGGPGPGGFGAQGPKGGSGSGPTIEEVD

ENPP1 = target: T8, ENPP1 (Homo sapiens, UniProt P22413); experiment: ATPase profile (ATP acyl phosphate probe); assay type: binding; conditions: ENPP1, SEQ ID NO: 76, ATP BS
T8 construct: endogenous in cells; host or cells: A375 cell lysate

PAICS = target: T9, PAICS (Homo sapiens, UniProt P22234); experiment: ATPase profile (ATP acyl phosphate probe); assay type: binding; conditions: SEQ ID NO: 151, ATP BS
T9 construct: to get the native cell lysate; endogenous in cells; host or cells: A375
T9 sequence (P22234 whole entry): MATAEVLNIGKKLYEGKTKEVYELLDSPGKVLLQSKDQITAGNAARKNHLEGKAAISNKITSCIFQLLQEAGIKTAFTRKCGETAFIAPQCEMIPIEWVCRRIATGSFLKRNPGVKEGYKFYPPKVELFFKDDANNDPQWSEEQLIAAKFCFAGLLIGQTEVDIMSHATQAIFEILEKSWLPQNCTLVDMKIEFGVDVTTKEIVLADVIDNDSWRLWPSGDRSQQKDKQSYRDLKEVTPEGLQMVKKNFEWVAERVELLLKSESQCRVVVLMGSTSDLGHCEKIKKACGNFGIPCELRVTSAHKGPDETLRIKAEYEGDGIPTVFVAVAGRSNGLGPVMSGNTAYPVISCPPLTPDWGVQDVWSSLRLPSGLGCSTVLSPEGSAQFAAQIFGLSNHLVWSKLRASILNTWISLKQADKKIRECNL

NARS = target: T10, NARS (Homo sapiens, UniProt O43776); experiment: ATPase profile (ATP acyl phosphate probe); assay type: binding; conditions: SEQ ID NO: 131, ATP BS
T10 construct: to get the native cell lysate; endogenous in cells; host or cells: A375

[1] = tested on: HSP90AA, HSP90AA2, HSP90AB1; experiment: ATPase profile (ATP acyl phosphate probe); assay type: binding; conditions: HSP90AA2, HSP90AB1, SEQ ID NO: 96, ATP BS
NDUFA10 = target: T11, NDUFA10 (Homo sapiens, UniProt O95299); experiment: ATPase profile (ATP acyl phosphate probe); assay type: binding; conditions: NDUFA10, SEQ ID NO: 132, ATP BS
T11 construct: to get the native cell lysate; endogenous in cells; host or cells: A375
T11 sequence (O95299 36-355): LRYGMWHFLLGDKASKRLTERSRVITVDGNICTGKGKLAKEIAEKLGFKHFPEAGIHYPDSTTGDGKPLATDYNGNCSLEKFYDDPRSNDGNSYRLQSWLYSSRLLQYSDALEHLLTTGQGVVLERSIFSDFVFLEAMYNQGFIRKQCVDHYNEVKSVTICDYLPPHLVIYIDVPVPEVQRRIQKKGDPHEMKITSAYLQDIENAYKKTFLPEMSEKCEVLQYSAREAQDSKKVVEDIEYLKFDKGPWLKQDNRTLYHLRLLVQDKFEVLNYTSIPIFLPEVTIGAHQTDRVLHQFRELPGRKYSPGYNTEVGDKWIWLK

QARS = target: T12, QARS (Homo sapiens, UniProt P47897); experiment: ATPase profile (ATP acyl phosphate probe); assay type: binding; conditions: SEQ ID NO: 180, ATP BS
T12 construct: to get the native cell lysate; endogenous in cells; host or cells: A375 cell lysate

EPRS = target: T13, EPRS (Homo sapiens, UniProt P07814); experiment: ATPase profile (ATP acyl phosphate probe); assay type: binding; conditions: SEQ ID NO: 77, ATP BS
T13 construct: endogenous in cells; host or cells: A375 cell lysate

PRPS1 = target: T14, PRPS1 (Homo sapiens, UniProt P60891); experiment: ATPase profile (ATP acyl phosphate probe); assay type: binding; conditions: PRPS1, SEQ ID NO: 171, ATP BS
T14 construct: endogenous in cells; host or cells: A375 cell lysate
T14 sequence (P60891 2-318 limits assumed): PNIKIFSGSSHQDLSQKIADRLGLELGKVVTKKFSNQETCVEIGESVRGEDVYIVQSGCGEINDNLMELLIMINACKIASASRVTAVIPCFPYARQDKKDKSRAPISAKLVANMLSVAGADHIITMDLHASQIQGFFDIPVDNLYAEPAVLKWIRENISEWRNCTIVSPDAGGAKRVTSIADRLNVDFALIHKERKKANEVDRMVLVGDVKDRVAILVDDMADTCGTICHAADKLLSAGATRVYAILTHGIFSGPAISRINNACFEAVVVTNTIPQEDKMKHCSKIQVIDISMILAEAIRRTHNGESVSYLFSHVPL

[2] = tested on: panel of 233 diverse ATPases; experiment: ATP acyl phosphate probe assay, ATPase profile in native A375 cell lysates; assay type: binding; conditions: 1 μM
NADSYN1 = target: T15, NADSYN1 (Homo sapiens, UniProt Q6IA69); experiment: ATPase profile (ATP acyl phosphate probe); assay type: binding; conditions: NADSYN1, SEQ ID NO: 130, ATP BS
T15 construct: to get the native cell lysate; endogenous in cells; host or cells: A375
T15 sequence (Q6IA69 whole entry): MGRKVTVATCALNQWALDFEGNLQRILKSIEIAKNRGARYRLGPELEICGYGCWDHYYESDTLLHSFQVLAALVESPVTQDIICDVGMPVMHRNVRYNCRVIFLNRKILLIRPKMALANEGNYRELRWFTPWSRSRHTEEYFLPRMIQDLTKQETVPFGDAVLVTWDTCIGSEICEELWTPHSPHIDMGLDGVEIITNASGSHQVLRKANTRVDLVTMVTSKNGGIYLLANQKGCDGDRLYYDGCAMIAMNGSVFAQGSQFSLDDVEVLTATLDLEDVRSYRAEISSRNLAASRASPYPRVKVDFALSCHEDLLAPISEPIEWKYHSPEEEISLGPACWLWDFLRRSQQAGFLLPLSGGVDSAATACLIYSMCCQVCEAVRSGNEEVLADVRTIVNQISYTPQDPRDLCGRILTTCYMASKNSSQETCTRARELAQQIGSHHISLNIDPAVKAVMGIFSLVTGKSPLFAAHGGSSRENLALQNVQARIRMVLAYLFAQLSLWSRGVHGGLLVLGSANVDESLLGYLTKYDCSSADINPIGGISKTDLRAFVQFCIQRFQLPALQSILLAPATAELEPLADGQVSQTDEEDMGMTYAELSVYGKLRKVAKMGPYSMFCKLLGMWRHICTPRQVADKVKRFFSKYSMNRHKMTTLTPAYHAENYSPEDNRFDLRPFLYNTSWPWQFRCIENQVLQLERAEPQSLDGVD

NADK2 = target: T16, NADK2 (Homo sapiens, UniProt Q4G0N4); experiment: ATPase profile (ATP acyl phosphate probe); assay type: binding; conditions: NADK2, SEQ ID NO: 129, ATP BS
T16 construct: to get the native cell lysate; endogenous in cells; host or cells: A375
T16 sequence (Q4G0N4 63-442): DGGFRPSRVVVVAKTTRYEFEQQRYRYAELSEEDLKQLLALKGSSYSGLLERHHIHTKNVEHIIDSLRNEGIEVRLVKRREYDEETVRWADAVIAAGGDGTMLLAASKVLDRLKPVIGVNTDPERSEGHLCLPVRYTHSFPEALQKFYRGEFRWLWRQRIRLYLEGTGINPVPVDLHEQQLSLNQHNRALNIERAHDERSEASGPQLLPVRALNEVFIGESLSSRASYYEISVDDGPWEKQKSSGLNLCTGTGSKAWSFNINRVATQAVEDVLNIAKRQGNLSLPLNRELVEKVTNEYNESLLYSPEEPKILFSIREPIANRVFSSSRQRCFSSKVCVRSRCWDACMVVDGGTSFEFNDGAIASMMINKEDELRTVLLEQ

XRCC5 = target: T17, XRCC5 (Homo sapiens, UniProt P13010); experiment: ATPase profile (ATP acyl phosphate probe); assay type: binding; conditions: XRCC5, SEQ ID NO: 231, ATP BS
T17 construct: to get the native cell lysate; endogenous in cells; host or cells: A375 cell lysate

NME3 = target: T18, NME3 (Homo sapiens, UniProt Q13232); experiment: ATPase profile (ATP acyl phosphate probe); assay type: binding; conditions: NME3, SEQ ID NO: 134, ATP BS
T18 construct: to get the native cell lysate; endogenous in cells; host or cells: A375
T18 sequence (Q13232 whole entry): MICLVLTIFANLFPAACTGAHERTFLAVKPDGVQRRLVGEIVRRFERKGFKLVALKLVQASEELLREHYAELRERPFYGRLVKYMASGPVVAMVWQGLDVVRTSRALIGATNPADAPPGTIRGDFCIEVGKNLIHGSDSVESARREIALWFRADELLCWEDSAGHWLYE

SMC1A = target: T19, SMC1A (Homo sapiens, UniProt Q14683); experiment: ATPase profile (ATP acyl phosphate probe); assay type: binding; conditions: SEQ ID NO: 193, ATP BS
T19 construct: to get the native cell lysate; endogenous in cells; host or cells: A375 cell lysate

NTPCR = target: T20, NTPCR (Homo sapiens, UniProt Q9BSD7); experiment: ATPase profile (ATP acyl phosphate probe); assay type: binding; conditions: SEQ ID NO: 141, ATP BS
T20 construct: to get the native cell lysate; endogenous in cells; host or cells: A375

T1 sequence (Q6NUK1 whole entry): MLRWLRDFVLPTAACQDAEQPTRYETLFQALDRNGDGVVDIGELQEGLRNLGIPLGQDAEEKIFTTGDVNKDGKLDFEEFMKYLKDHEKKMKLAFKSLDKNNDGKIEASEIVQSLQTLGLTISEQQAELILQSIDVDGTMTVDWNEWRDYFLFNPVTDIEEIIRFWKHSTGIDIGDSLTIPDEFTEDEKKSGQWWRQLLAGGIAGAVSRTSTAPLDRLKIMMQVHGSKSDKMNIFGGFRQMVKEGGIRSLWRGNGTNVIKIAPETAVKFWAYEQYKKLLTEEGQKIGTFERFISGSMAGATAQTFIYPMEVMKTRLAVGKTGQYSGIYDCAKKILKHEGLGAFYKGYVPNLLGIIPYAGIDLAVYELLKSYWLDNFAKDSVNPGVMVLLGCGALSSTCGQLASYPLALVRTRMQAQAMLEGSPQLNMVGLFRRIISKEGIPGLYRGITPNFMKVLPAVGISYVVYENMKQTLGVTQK

In the case of `Cn1c(=O)[nH]c2ccc(-c3cccc(C(=O)NC4CCn5ccnc5C4)c3)cc21` (centres unmarked) [Z36-MP5, 3-(3-methyl-2-oxo-2,3-dihydro-1H-benzo[d]imidazol-5-yl)-N-(5,6,7,8-tetrahydroimidazo[1,2-a]pyridin-7-yl)benzamide], the “Inhibition (%) by 1 μM Z36-MP5” value (SLC25A24) is reported as 11.88%, the “T cell-mediated killing of B16F10 cells” value (B16F10 cells) is reported as “significantly induced” and the “Inhibition (%) by 1 μM Z36-MP5” value (APRT) is reported as 0.39%. For the same compound, the “Inhibition (%) by 1 μM Z36-MP5” value (GATB; SEQ ID NO: 83, ATP BS) was −15.35%, the “Inhibition (%) by 1 μM Z36-MP5” value (GATB; SEQ ID NO: 84, ATP BS) was −4.32% and the “Inhibition (%) by 1 μM Z36-MP5” value (HSP90AB1) was −3.22%. The “Inhibition (%) by 1 μM Z36-MP5” value (CLPB) was −9.00%, the “Inhibition (%) by 1 μM Z36-MP5” value (UBA6) was 3.60% and the “Inhibition (%) by 1 μM Z36-MP5” value (NME1, NME2) was −1.52%. For the same compound, the “Inhibition (%) by 1 μM Z36-MP5” value (HSPA1A; SEQ ID NO: 100, ATP BS) was −9.44%, the “Inhibition (%) by 1 μM Z36-MP5” value (HSPA1A; SEQ ID NO: 101, ATP BS) was −15.23% and the “Inhibition (%) by 1 μM Z36-MP5” value (ENPP1) was 8.04%. For the same compound, the “Inhibition (%) by 1 μM Z36-MP5” value (PAICS) was 19.51%, the “Inhibition (%) by 1 μM Z36-MP5” value (NARS) was 2.36% and the “Inhibition (%) by 1 μM Z36-MP5” value [1] was −5.50%. For the same compound, the “Inhibition (%) by 1 μM Z36-MP5” value (NDUFA10) was 14.09%, the “Inhibition (%) by 1 μM Z36-MP5” value (QARS) was −7.77% and the “Inhibition (%) by 1 μM Z36-MP5” value (EPRS) was 0.78%. For the same compound, the “Inhibition (%) by 1 μM Z36-MP5” value (PRPS1) was −22.26%, the “inhibition against a panel of 233 diverse ATPases” value [2] was “less than 35%” and the “Inhibition (%) by 1 μM Z36-MP5” value (NADSYN1) was −2.19%. The “Inhibition (%) by 1 μM Z36-MP5” value (NADK2) was −11.03%, the “Inhibition (%) by 1 μM Z36-MP5” value (XRCC5) was 2.24% and the “Inhibition (%) by 1 μM Z36-MP5” value (NME3) was 1.91%. For the same compound, the “Inhibition (%) by 1 μM Z36-MP5” value (SMC1A) was 5.67% and the “Inhibition (%) by 1 μM Z36-MP5” value (NTPCR) was −14.99%.
